According to patent US11667606B2, “Thyromimetics” (Autobahn Therapeutics, Inc., priority 2019, dated 2023):

Columns and labels:
TRβ = target: T1, TRβ (Homo sapiens, UniProt P10828); test: Thyroid-hormone reporter-gene assay, TRβ (Gal4 DBD hybrid, luciferase, HEK293); type: cell-based; conditions: for T3-SI, selectivity index (SI) calculated as EC50 (TRα)/EC50 (TRβ): TRβ over TRα selectivity from reporter-gene EC50 values; for EC50: reporter cells derived from HEK293, 24 hr incubation, luciferase readout
T1 construct: expressed in transfected cells; host or cells: HEK293
T1 sequence (P10828 217-461 limits assumed): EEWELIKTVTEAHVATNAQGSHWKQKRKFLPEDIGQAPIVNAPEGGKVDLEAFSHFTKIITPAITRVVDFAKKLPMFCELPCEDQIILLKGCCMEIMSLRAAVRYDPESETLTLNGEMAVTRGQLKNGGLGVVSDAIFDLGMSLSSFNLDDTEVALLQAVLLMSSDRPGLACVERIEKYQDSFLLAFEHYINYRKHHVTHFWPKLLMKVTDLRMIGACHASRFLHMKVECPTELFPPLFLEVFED
Experimental: (§1) Compounds were tested for thyroid-hormone receptor activity using TR reporter-gene assays. Reporter cells used in the assays express a TR-receptor hybrid (either TRα or TRβ) in which the native N-terminal DNA binding domain (DBD) has been replaced with that of the yeast Gal4 DBD. The reporter gene, firefly luciferase, is functionally linked to the Gal4 upstream activation sequence (UAS). Both cell lines were derived from human embryonic kidney (HEK293).
(§2) A suspension of reporter cells was prepared in cell recovery medium containing 10% charcoal-stripped FBS, and dispensed into assay plates. The plates were pre-incubated for 6 hours in a cell culture incubator (37° C./5% CO2/85% humidity).
(§3) These intermediate stocks were subsequently diluted directly into compound screening medium containing 10% charcoal-stripped FBS to generate “2×-concentration” treatment media (containing 0.2, 0.4 or 0.8% DMSO).
(§4) At the end of the pre-incubation period, culture media were discarded from the assay plates, and all wells received 100 μl of compound screening medium. 100 μl of each of the previously prepared “2×-concentration” treatment media were dispensed into duplicate assay wells, thereby achieving the desired final treatment concentrations. The final concentration of DMSO in all assay wells was 0.1, 0.2 or 0.4%. Assay plates were incubated for 24 hr in a cell culture incubator (37° C./5% CO2/85% humidity).
(§5) At the 24 h assay endpoint, treatment media were discarded and […] of luciferase detection reagent was added. Relative luminometer units (RLUs) were quantified from each assay well.

TRα = target: T2, TRα (Homo sapiens, UniProt P10827); test: Thyroid-hormone reporter-gene assay, TRα (Gal4 DBD hybrid, luciferase, HEK293); type: cell-based; conditions: reporter cells derived from HEK293, 24 hr incubation, luciferase readout
T2 construct: expressed in transfected cells; host or cells: HEK293
T2 sequence (P10827 128-410 isoform P10827-2 limits assumed): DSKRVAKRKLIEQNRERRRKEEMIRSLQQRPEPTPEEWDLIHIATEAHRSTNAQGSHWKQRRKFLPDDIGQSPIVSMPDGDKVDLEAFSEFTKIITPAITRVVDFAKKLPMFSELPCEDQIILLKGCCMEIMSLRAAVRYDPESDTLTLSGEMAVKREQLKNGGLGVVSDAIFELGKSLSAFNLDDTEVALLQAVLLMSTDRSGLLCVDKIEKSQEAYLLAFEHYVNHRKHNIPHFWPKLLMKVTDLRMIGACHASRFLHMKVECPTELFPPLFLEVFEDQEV
Experimental: as §1, §2, §3, §4, §5

Row | Compound | T3-SI, selectivity index (SI) calculated as EC50 (TRα)/EC50 (TRβ) (TRβ) | EC50 (TRβ) | EC50 (TRα)
1 | O=C(O)COc1cc(Cl)c(Cc2ccc(O)c(-c3cc(C(F)(F)F)ccc3F)c2)c(Cl)c1 [Compound 45, 2-(3,5-dichloro-4-((2′-fluoro-6-hydroxy-5′-(trifluoromethyl)-[1,1′-biphenyl]-3-yl)methyl)phenoxy)acetic Acid] | ++ (3X < T3-SI ≤ 30X) | 10 to 100 nM | 100 to 1000 nM
2 | O=C(O)COc1cc(Cl)c(Cc2ccc(O)c(-c3cccc(C(F)(F)F)c3F)c2)c(Cl)c1 [Compound 49, 2-(3,5-dichloro-4-((2′-fluoro-6-hydroxy-3′-(trifluoromethyl)-[1,1′-biphenyl]-3-yl)methyl)phenoxy)acetic Acid] | ++ (3X < T3-SI ≤ 30X) | 100 to 1000 nM | > 1000 nM
3 | CCc1ccc(F)c(-c2cc(Cc3c(Cl)cc(OCC(=O)O)cc3Cl)ccc2O)c1 [Compound 51, 2-(3,5-dichloro-4-((5′-ethyl-2′-fluoro-6-hydroxy-[1,1′-biphenyl]-3-yl)methyl)phenoxy)acetic Acid] | ++ (3X < T3-SI ≤ 30X) | > 1000 nM | > 1000 nM
4 | O=C(O)COc1cc(Cl)c(Cc2ccc(O)c(-c3cc(OC(F)F)ccc3F)c2)c(Cl)c1 [Compound 52, 2-(3,5-dichloro-4-((5′-(difluoromethoxy)-2′-fluoro-6-hydroxy-[1,1′-biphenyl]-3-yl)methyl)phenoxy)acetic Acid] | ++ (3X < T3-SI ≤ 30X) | 10 to 100 nM | 100 to 1000 nM
5 | O=C(O)COc1cc(Cl)c(Cc2ccc(O)c(-c3cc(F)cc(OC(F)F)c3)c2)c(Cl)c1 [Compound 54, 2-(3,5-dichloro-4-((3′-(difluoromethoxy)-5′-fluoro-6-hydroxy-[1,1′-biphenyl]-3-yl)methyl)phenoxy)acetic Acid] | ++ (3X < T3-SI ≤ 30X) | 100 to 1000 nM | > 1000 nM
6 | O=C(O)COc1cc(Cl)c(Cc2ccc(O)c(-c3cccc(OC(F)F)c3F)c2)c(Cl)c1 [Compound 56, 2-(3,5-dichloro-4-((3′-(difluoromethoxy)-2′-fluoro-6-hydroxy-[1,1′-biphenyl]-3-yl)methyl)phenoxy)acetic Acid] | ++ (3X < T3-SI ≤ 30X) | 100 to 1000 nM | > 1000 nM
7 | CCc1cccc(-c2cc(Cc3c(C)cc(OCC(=O)O)cc3Cl)ccc2O)c1 [Compound 60, 2-(3-chloro-4-((3′-ethyl-6-hydroxy-[1,1′-biphenyl]-3-yl)methyl)-5-methylphenoxy)acetic Acid] | +++ (T3-SI > 30X) | 100 to 1000 nM | > 1000 nM
8 | Cc1cc(OCC(=O)O)cc(Cl)c1Cc1ccc(O)c(-c2cccc(OC(F)F)c2)c1 [Compound 62, 2-(3-chloro-4-((3′-(difluoromethoxy)-6-hydroxy-[1,1′-biphenyl]-3-yl)methyl)-5-methylphenoxy)acetic Acid] | ++ (3X < T3-SI ≤ 30X) | 100 to 1000 nM | > 1000 nM
9 | Cc1cc(OCC(=O)O)cc(Cl)c1Cc1ccc(O)c(-c2cccc(C(F)(F)F)c2)c1 [Compound 64, 2-(3-chloro-4-((6-hydroxy-3′-(trifluoromethyl)-[1,1′-biphenyl]-3-yl)methyl)-5-methylphenoxy)acetic Acid] | ++ (3X < T3-SI ≤ 30X) | 100 to 1000 nM | 100 to 1000 nM
10 | Cc1cc(OCC(=O)O)cc(Br)c1Cc1ccc(O)c(-c2cccc(OC(F)F)c2)c1 [Compound 66, 2-(3-bromo-4-((3′-(difluoromethoxy)-6-hydroxy-[1,1′-biphenyl]-3-yl)methyl)-5-methylphenoxy)acetic Acid] | ++ (3X < T3-SI ≤ 30X) | 10 to 100 nM | 100 to 1000 nM
11 | O=C(O)COc1cc(Cl)c(Cc2ccc(O)c(Cc3ccc(F)cc3)c2)c(Cl)c1 [Compound 70, 2-(3,5-dichloro-4-(3-(4-fluorobenzyl)-4-hydroxybenzyl)phenoxy)acetic Acid] | +++ (T3-SI > 30X) | 100 to 1000 nM | > 1000 nM
12 | CC(c1ccc(F)cc1)c1cc(Cc2c(Cl)cc(OCC(=O)O)cc2Cl)ccc1O (stereo not drawn) [Compound 73, 2-(3,5-dichloro-4-(3-(1-(4-fluorophenyl)ethyl)-4-hydroxybenzyl)phenoxy) acetic Acid] | ++ (3X < T3-SI ≤ 30X) | 10 to 100 nM | 10 to 100 nM
13 | O=C(O)COc1cc(Cl)c(Cc2ccc(O)c(Cc3ccncc3)c2)c(Cl)c1 [Compound 82, 2-(3,5-dichloro-4-(4-hydroxy-3-(pyridin-4-ylmethyl)benzyl)phenoxy) acetic Acid] | ++ (3X < T3-SI ≤ 30X) | > 1000 nM | > 1000 nM
14 | O=C(O)COc1cc(Cl)c(Cc2ccc(O)c(Cc3ccccc3F)c2)c(Cl)c1 [Compound 84, 2-(3,5-dichloro-4-(3-(2-fluorobenzyl)-4-hydroxybenzyl)phenoxy)acetic Acid] | ++ (3X < T3-SI ≤ 30X) | > 1000 nM | > 1000 nM
15 | O=C(O)COc1cc(Cl)c(Cc2ccc(O)c(Cc3cccc(F)c3)c2)c(Cl)c1 [Compound 86, 2-(3,5-dichloro-4-(3-(3-fluorobenzyl)-4-hydroxybenzyl)phenoxy)acetic Acid] | ++ (3X < T3-SI ≤ 30X) | > 1000 nM | > 1000 nM
16 | O=C(O)COc1cc(Cl)c(Cc2ccc(O)c(Cc3ccc(F)cc3F)c2)c(Cl)c1 [Compound 88, 2-(3,5-dichloro-4-(3-(2,4-difluorobenzyl)-4-hydroxybenzyl)phenoxy)acetic Acid] | ++ (3X < T3-SI ≤ 30X) | 100 to 1000 nM | 100 to 1000 nM
17 | O=C(O)COc1cc(Cl)c(Cc2ccc(O)c(Cc3ccc(Cl)cc3)c2)c(Cl)c1 [Compound 90, 2-(3,5-dichloro-4-(3-(4-chlorobenzyl)-4-hydroxybenzyl)phenoxy)acetic Acid] | ++ (3X < T3-SI ≤ 30X) | > 1000 nM | > 1000 nM
18 | CCC(c1ccc(F)cc1)c1cc(Cc2c(Cl)cc(OCC(=O)O)cc2Cl)ccc1O (stereo not drawn) [Compound 98, 2-(3,5-dichloro-4-(3-(1-(4-fluorophenyl)propyl)-4-hydroxybenzyl)phenoxy)acetic Acid] | ++ (3X < T3-SI ≤ 30X) | 10 to 100 nM | 100 to 1000 nM
19 | CCCC(c1ccc(F)cc1)c1cc(Cc2c(Cl)cc(OCC(=O)O)cc2Cl)ccc1O (stereo not drawn) [Compound 102, 2-(3,5-dichloro-4-(3-(1-(4-fluorophenyl)butyl)-4-hydroxybenzyl)phenoxy) acetic Acid] | +++ (T3-SI > 30X) | 100 to 1000 nM | > 1000 nM
20 | CC(C)C(c1ccc(F)cc1)c1cc(Cc2c(Cl)cc(OCC(=O)O)cc2Cl)ccc1O (stereo not drawn) [Compound 104, 2-(3,5-dichloro-4-(3-(1-(4-fluorophenyl)-2-methylpropyl)-4-hydroxybenzyl)phenoxy)acetic Acid] | ++ (3X < T3-SI ≤ 30X) | 10 to 100 nM | 100 to 1000 nM
21 | CC(C)(c1ccc(F)cc1)c1cc(Cc2c(Cl)cc(OCC(=O)O)cc2Cl)ccc1O [Compound 105, 2-(3,5-dichloro-4-(3-(2-(4-fluorophenyl)propan-2-yl)-4-hydroxybenzyl)phenoxy)acetic Acid] | ++ (3X < T3-SI ≤ 30X) | 10 to 100 nM | 100 to 1000 nM
22 | O=C(O)COc1cc(Cl)c(Cc2ccc(O)c(C(c3ccc(F)cc3)C3CC3)c2)c(Cl)c1 (stereo not drawn) [Compound 107, 2-(3,5-dichloro-4-(3-(cyclopropyl(4-fluorophenyl)methyl)-4-hydroxybenzyl)phenoxy)acetic Acid] | ++ (3X < T3-SI ≤ 30X) | 10 to 100 nM | 100 to 1000 nM
23 | O=C(O)COc1cc(Cl)c(Cc2ccc(O)c(C(c3ccc(F)cc3)C3CCC3)c2)c(Cl)c1 (stereo not drawn) [Compound 109, 2-(3,5-dichloro-4-(3-(cyclobutyl(4-fluorophenyl)methyl)-4-hydroxybenzyl)phenoxy)acetic Acid] | +++ (T3-SI > 30X) | 100 to 1000 nM | > 1000 nM
